The source of these data is article PMC3621900 (Nature Communications, 2013).

Structures are written as SMILES.

The assay concerns nicotinic acetylcholine receptor (nAChR). The assay can be described thus: whole-cell patch clamp. Further details: species or system Apis mellifera. For orientation: Patch clamp records ionic current or voltage across a cell membrane.

Broadly, the IC50 is the concentration that inhibits the measured activity by half. A high value points to lower potency. For the compound `O=[N+]([O-])NC1=NCCN1Cc1ccc(Cl)nc1` [imidacloprid], the IC50 came to 295 nM.
